Reference: BindingDB's records for patent US20230322822 (Chengdu Di''Ao Jiuhong Pharmaceutical Factory, 2023)

What was measured:
[1] = biological target: Epidermal growth factor receptor (Homo sapiens, UniProt P00533); experiment: EGFR kinase Enzymatic Activity Test 1
Description: (§1) To assess the effect of compounds on the activity of wild-type and mutant EGFR kinases, kinase activity was tested by measuring ATP consumption in an enzymatic reaction using an ADP-Glo (Promega Corporation) kit. Samples to be tested were dissolved in DMSO and diluted in a gradient. In a microplate, an EGFR kinase, a reaction buffer (containing Tris-HCl with a pH of 7.5, MgCl2, DTT and BSA), a kinase substrate Poly(Glu4, Tyr1) and a sample (a total volume of 20 μL per well) were added per well, while a blank control (no enzyme and sample) and a negative control (no sample) were set up; incubated for 15 minutes at 23° C.; added with 5 μL of ATP, and reacted at 23° C. for 60 minutes; added with ADP-Glo Reagent, and continuously reacted for 40 minutes at room temperature to inactivate the redundant ATP; then, added with a Kinase Detection Reagent, and reacted at room temperature for 30 minutes, then the chemiluminescence intensity L of each well was measured. […] IC50 values were calculated according to the above calculation using 4Parameter Logistic Model in XLfit software.

[2] = biological target: Epidermal growth factor receptor [T790M,L858R] (Homo sapiens, UniProt P00533, L858R/T790M); experiment: EGFR kinase Enzymatic Activity Test 1
Description: as §1

Sequence of Epidermal growth factor receptor (P00533 whole entry): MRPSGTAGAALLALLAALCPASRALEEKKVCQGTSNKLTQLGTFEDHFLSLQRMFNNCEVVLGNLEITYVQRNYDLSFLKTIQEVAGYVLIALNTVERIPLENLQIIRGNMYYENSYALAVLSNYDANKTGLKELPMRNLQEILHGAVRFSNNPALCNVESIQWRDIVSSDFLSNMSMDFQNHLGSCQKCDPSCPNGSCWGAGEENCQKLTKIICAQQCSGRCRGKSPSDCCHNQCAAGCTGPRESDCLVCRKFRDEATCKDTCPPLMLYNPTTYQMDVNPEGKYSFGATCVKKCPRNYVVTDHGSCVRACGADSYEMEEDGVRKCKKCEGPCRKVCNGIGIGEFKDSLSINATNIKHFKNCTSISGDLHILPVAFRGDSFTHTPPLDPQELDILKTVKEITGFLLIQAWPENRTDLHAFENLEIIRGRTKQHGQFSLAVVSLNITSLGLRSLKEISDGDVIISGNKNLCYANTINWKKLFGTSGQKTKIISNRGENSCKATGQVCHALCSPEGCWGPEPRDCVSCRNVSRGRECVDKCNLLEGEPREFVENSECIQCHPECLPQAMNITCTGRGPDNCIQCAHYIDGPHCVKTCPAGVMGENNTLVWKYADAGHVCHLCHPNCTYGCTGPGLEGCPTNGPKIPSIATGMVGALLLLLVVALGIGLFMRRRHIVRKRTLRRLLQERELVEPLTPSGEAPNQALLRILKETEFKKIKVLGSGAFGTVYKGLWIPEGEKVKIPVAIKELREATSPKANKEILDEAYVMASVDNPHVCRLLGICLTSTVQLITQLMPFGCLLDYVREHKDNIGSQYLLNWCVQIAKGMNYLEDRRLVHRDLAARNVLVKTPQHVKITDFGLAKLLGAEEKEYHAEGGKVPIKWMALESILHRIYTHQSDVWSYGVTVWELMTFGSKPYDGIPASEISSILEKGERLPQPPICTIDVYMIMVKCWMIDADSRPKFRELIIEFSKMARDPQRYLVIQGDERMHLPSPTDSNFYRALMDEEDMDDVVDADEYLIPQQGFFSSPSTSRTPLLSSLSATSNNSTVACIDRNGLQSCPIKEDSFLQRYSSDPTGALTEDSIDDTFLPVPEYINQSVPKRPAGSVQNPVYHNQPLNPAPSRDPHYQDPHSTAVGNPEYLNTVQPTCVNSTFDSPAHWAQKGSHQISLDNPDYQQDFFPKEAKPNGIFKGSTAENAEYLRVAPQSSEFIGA
Sequence of Epidermal growth factor receptor [T790M,L858R] (P00533 25-1210 T790M/L858R limits assumed): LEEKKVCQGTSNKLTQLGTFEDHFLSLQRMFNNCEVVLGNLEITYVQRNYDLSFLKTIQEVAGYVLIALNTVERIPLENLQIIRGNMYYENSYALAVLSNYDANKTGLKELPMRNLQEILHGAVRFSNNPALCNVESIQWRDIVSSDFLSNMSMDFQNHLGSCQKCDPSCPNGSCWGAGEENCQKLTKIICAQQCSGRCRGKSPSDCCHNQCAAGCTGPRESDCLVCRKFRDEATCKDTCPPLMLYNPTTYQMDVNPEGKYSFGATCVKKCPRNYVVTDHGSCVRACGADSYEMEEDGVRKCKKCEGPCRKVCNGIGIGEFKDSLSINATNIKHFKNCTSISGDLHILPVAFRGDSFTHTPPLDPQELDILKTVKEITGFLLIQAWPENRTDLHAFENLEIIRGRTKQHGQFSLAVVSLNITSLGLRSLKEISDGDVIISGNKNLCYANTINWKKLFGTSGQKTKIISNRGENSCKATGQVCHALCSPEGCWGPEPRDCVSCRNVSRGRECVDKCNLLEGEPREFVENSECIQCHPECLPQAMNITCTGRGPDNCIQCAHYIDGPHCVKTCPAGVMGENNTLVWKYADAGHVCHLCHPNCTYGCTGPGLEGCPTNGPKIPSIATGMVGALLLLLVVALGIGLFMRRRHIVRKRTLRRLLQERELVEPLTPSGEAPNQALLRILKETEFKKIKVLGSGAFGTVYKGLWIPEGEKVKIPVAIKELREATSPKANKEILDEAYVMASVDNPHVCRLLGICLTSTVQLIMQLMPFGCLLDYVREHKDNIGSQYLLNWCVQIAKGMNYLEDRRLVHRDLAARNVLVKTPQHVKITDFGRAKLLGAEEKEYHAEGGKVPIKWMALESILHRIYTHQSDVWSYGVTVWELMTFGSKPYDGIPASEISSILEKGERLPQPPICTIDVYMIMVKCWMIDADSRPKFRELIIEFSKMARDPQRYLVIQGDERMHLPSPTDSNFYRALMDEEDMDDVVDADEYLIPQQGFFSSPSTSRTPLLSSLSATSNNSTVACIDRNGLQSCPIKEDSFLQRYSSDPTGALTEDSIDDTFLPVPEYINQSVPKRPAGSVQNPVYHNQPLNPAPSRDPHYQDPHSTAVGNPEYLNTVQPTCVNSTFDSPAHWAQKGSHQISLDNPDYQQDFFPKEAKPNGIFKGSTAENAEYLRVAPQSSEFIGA

Question: For COc1cc(N2CCC(N3CCN(C)CC3)CC2)c(C)cc1Nc1ncc(Br)c(Nc2ccc(C)cc2P(C)(C)=O)n1 [US20230322822, Compound 2], which IC50 [1] is on record?
Answer: 169 nM

Question: And the IC50 [2]?
Answer: 24.8 nM
